Values of other authors, collected in article PMC7099596 (ACS Central Science, 2020).

Columns and labels:
[1] = test system: SKBr-3 breast cancer cell line; settings: read-out: EC50 antiproliferative activity, SKBr-3, ref NCI ID: 122750
[2] = test system: MCF-7 breast cancer cell line; settings: read-out: EC50 antiproliferative activity, MCF-7, ref NCI ID: 122750

COC1=C2C[C@@H](C)C[C@H](OC)[C@H](O)[C@@H](C)/C=C(\C)[C@H](OC(N)=O)[C@@H](OC)/C=C\C=C(/C)C(=O)NC(=CC1=O)C2=O [geldanamycin]
EC50 [1]: 0.024 µM | EC50 [2]: 0.0199 µM
